According to paper PMC6522510 (Nature Communications, 2019):

Columns and labels:
Design in all cases: species or system AML cell lines (8); Primary HTS, single concentration about 10 uM, Cell Titer Glo viability; log10 luminescence, per cent inhibition relative to cycloheximide control
Conditions in all cases: 72 h, relative to cycloheximide control, log10 luminescence; inhibitor
[1] = test system: ML-2
[2] = test system: U937
[3] = test system: M07e
[4] = test system: CMK
[5] = test system: CMS
[6] = test system: CHRF288-11
[7] = test system: MV4-11
[8] = test system: MOLM-13

Compound	ML-2 %inh [1]	U937 %inh [2]	M07e %inh [3]	CMK %inh [4]	CMS %inh [5]	CHRF288-11 %inh [6]	MV4-11 %inh [7]	MOLM-13 %inh [8]
COc1ccc(-c2cc3c(N)ncnc3o2)cc1 [SJ000573220-1, R6872/65/2]	2.103%	-1.174%	10.8%	5.591%	5.247%	23.46%	-2.253%	4.813%
CN1CCC(n2cnc(-c3ccc(F)cc3)c2-c2ccnc(N)n2)CC1 [SJ000573221-1, JB19236-039E1]	19.36%	13.28%	20.04%	38.27%	5.129%	35.57%	16.49%	26.24%
CCn1c(-c2nonc2N)nc2cnc(Oc3cccc(NC(=O)c4ccc(OCCN5CCOCC5)cc4)c3)cc21 [SJ000573222-1, HC204505-099A1]	11.73%	38.21%	-2.093%	59.96%	9.487%	16.4%	34.29%	15.66%
c1ccc(-c2n[nH]cc2-c2ccnc(-c3ccc(OCCn4ccnc4)cc3)c2)nc1 [SJ000573223-1, FVLN/241/112/1]	-0.7623%	-2.834%	-2.852%	2.62%	-2.708%	4.882%	2.943%	3.444%
Fc1ccc(Nc2nccc(-c3c(-c4ccc(C(F)(F)F)cc4)nn4ncccc34)n2)cc1F [SJ000573224-1, U17838/186/3]	2.7%	0.5152%	-1.97%	0.9298%	-1.104%	-0.9437%	-1.825%	-1.248%
FC(F)(F)c1ccc(-c2nn3ncccc3c2-c2ccnc(Nc3ccc4c(c3)OCCO4)n2)cc1 [SJ000573225-1, U17838/185/2]	1.234%	-2.674%	2.059%	-4.267%	-3.296%	13.54%	7.035%	-3.312%
COc1cc(C=NNc2ncnc3c2cnn3-c2ccccc2)ccc1O [SJ000573226-1, U14681/58/1]	-0.2562%	8.322%	11.87%	-0.5633%	3.107%	10.72%	35.25%	3.51%
CN(C)CCOc1ccc(-c2cc(-c3ccc4c(c3)CCC4=NO)c(-c3ccncc3)o2)cc1 [SJ000573227-1, JS84326-047A1]	66.89%	9.989%	14.13%	15.46%	6.225%	127%	2.356%	21.06%
CCc1nccc2c1nc(-c1nonc1N)n2CC [SJ000573228-1, DW100508-159A1]	3.812%	6.241%	-1.816%	3.989%	-0.9805%	7.841%	4.392%	4.708%
Cn1c(-c2nonc2N)nc2cnccc21 [SJ000573229-1, SD100950-025A1]	1.359%	2.832%	-6.783%	8.868%	2.573%	1.476%	1.313%	0.5998%
COc1ccc(-c2nn3ncccc3c2-c2ccnc(Nc3ccc(F)c(F)c3)n2)cc1 [SJ000573231-1, U17838/182/3]	2.035%	-1.69%	-2.16%	1.273%	1.385%	-2.425%	-1.012%	-1.234%
